Assay results from patent US5629296A, “9A-N-(N'-carbamoyl)and 9A-N-(N'-thiocarbamoyl) derivatives of 9-deoxo-9A-aza-9A-homoerythromycin A” (Pliva farmaceutiska, kemijska, prehrambena i kozmeticka …, priority 1993, dated 1997).
Values after ≈ are worked out from the molar mass of the structure shown.

Key:
Assay in all cases: MIC, dilution method on microplates (NCCLS M7-A2)
Format in all cases: cell-based
[1] = system: Staphylococcus epidermidis ATCC 12228; settings: ATCC12228
Protocol: (§1) Minimum inhibitory concentrations (MIC, mcg/ml) are determined by dilution method on microplates according to the recommendation of National Committee for Clinical Laboratory Standards (NCCLS, M7-A2). It is evident from Table 1 that standard strains and clinical isolates tested are susceptible to newly synthetised compounds. Thus they may be used for disinfection of rooms, chirurgical instruments and humans and as therapeutic agents in the treatment of infective diseases in animals, especially mammals and humans, caused by a broad spectrum of Gram-positive bacteria, mycoplasmas and generally patogenic microorganisms that are susceptible to the compounds of the formula (I). To this purpose the above compounds and pharmaceutically acceptable acid addition salts thereof may be administered orally in usual doses from 0.2 mg/kg body weight daily to about 250 mg/kg/day, most preferably from 5-50 mg/kg/day, or parenterally in the form of subcutaneous and intramuscular injections.

[2] = system: Streptococcus faecalis ATCC 8043; settings: Enterococcus faecalis, ATCC8043
Protocol: as §1

B. cererus ATCC 11778 = system: B. cererus ATCC 11778
Protocol: as §1

[3] = system: Bacillus subtilis NCTC 8236; settings: NCTC8236
Protocol: as §1

[4] = system: Staphylococcus aureus ATCC 6538P; settings: ATCC6538P
Protocol: as §1

[5] = system: Pseudomonas aeruginosa NCTC 10490; settings: NCTC10490
Protocol: as §1

[6] = system: Esherichia coli ATCC 10536
Protocol: as §1

Salmonella Panama 6117 = settings: Salmonella enterica, PANAMA6117
Protocol: as §1

[7] = system: Micrococcus flavus ATCC 10240; settings: ATCC10240
Protocol: as §1

B. pumilus NCTC 8241 = settings: Bacillus pumilus, NCTC8241
Protocol: as §1

[8] = system: BHS-B Streptococcus Agalactiae J-22
Protocol: as §1

[9] = system: BHS-A Streptococcus pyogenes J-21
Protocol: as §1

SMILES	MIC [1] [µg/mL]	MIC [2] [µg/mL]	MIC (B. cererus ATCC 11778) [µg/mL]	MIC [3] [µg/mL]	MIC [4] [µg/mL]	MIC [5] [µg/mL]	MIC [6] [µg/mL]	MIC (Salmonella Panama 6117) [µg/mL]	MIC [7] [µg/mL]	MIC (B. pumilus NCTC 8241) [µg/mL]	MIC [8] [µg/mL]	MIC [9] [µg/mL]
CC[C@H]1OC(=O)[C@H](C)[C@@H](O[C@H]2C[C@@](C)(OC)[C@@H](O)[C@H](C)O2)[C@H](C)[C@@H](O[C@@H]2O[C@H](C)C[C@H](N(C)C)[C@H]2O)[C@](C)(O)C[C@@H](C)CN(C(=S)NCc2ccccc2)[C@H](C)[C@@H](O)[C@]1(C)O [Example 7, 9-deoxo-9a-N-(N'-benzyl-thiocarbamoyl)-9a-aza-9a-homoerythromycin A]	6.25 (≈ 7.07 µM)	1.56 (≈ 1.76 µM)	6.25 (≈ 7.07 µM)	1.56 (≈ 1.76 µM)	3.12 (≈ 3.53 µM)	50 (≈ 56.5 µM)	12.5 (≈ 14.1 µM)	> 100	1.56 (≈ 1.76 µM)	1.56 (≈ 1.76 µM)		
CC[C@H]1OC(=O)[C@H](C)[C@@H](O[C@H]2C[C@@](C)(OC)[C@@H](O)[C@H](C)O2)[C@H](C)[C@@H](O[C@@H]2O[C@H](C)C[C@H](N(C)C)[C@H]2O)[C@](C)(O)C[C@@H](C)CN(C(=O)Nc2ccncc2)[C@H](C)[C@@H](O)[C@]1(C)O [Example 4, 9-deoxo-9a-N-[N'-(4-pyridyl)-carbamoyl]-9a-aza-9a-homoerythromycin A]	25 (≈ 29.2 µM)	6.25 (≈ 7.31 µM)	12.5 (≈ 14.6 µM)	25 (≈ 29.2 µM)	12.5 (≈ 14.6 µM)	50 (≈ 58.5 µM)	12.5 (≈ 14.6 µM)	25 (≈ 29.2 µM)	12.5 (≈ 14.6 µM)	12.5 (≈ 14.6 µM)	12.5 (≈ 14.6 µM)	12.5 (≈ 14.6 µM)
CC[C@H]1OC(=O)[C@H](C)[C@@H](O[C@H]2C[C@@](C)(OC)[C@@H](O)[C@H](C)O2)[C@H](C)[C@@H](O[C@@H]2O[C@H](C)C[C@H](N(C)C)[C@H]2O)[C@](C)(O)C[C@@H](C)CN(C(=O)NCc2ccccc2)[C@H](C)[C@@H](O)[C@]1(C)O [Example 6, 9-deoxo-9a-N-(N'-benzyl-carbamoyl)-9a-aza-9a-homoerythromycin A]	6.25 (≈ 7.2 µM)	3.12 (≈ 3.59 µM)	6.25 (≈ 7.2 µM)	3.12 (≈ 3.59 µM)	3.12 (≈ 3.59 µM)	50 (≈ 57.6 µM)	25 (≈ 28.8 µM)	> 100	3.12 (≈ 3.59 µM)	3.12 (≈ 3.59 µM)		
CC[C@H]1OC(=O)[C@H](C)[C@@H](O[C@H]2C[C@@](C)(OC)[C@@H](O)[C@H](C)O2)[C@H](C)[C@@H](O[C@@H]2O[C@H](C)C[C@H](N(C)C)[C@H]2O)[C@](C)(O)C[C@@H](C)CN(C(=O)NC(C)C)[C@H](C)[C@@H](O)[C@]1(C)O [Example 1, 9-deoxo-9a-N-(N'-isopropyl-carbamoyl)-9a-aza-9a-homoerythromycin A]	6.25 (≈ 7.62 µM)	3.12 (≈ 3.8 µM)	6.25 (≈ 7.62 µM)	1.56 (≈ 1.9 µM)	1.56 (≈ 1.9 µM)	25 (≈ 30.5 µM)	12.5 (≈ 15.2 µM)	6.25 (≈ 7.62 µM)	3.12 (≈ 3.8 µM)	6.25 (≈ 7.62 µM)		
CC[C@H]1OC(=O)[C@H](C)[C@@H](O[C@H]2C[C@@](C)(OC)[C@@H](O)[C@H](C)O2)[C@H](C)[C@@H](O[C@@H]2O[C@H](C)C[C@H](N(C)C)[C@H]2O)[C@](C)(O)C[C@@H](C)CN[C@H](C)[C@@H](O)[C@]1(C)O [Example 9a-NH, 9-deoxo-9a-aza-9a-homoerythromycin A]	3.12 (≈ 4.25 µM)	3.12 (≈ 4.25 µM)	3.12 (≈ 4.25 µM)	12.5 (≈ 17 µM)	3.12 (≈ 4.25 µM)	25 (≈ 34 µM)	3.12 (≈ 4.25 µM)	3.12 (≈ 4.25 µM)	1.56 (≈ 2.12 µM)	12.5 (≈ 17 µM)	1.56 (≈ 2.12 µM)	3.12 (≈ 4.25 µM)
CC[C@H]1OC(=O)[C@H](C)[C@@H](O[C@H]2C[C@@](C)(OC)[C@@H](O)[C@H](C)O2)[C@H](C)[C@@H](O[C@@H]2O[C@H](C)C[C@H](N(C)C)[C@H]2O)[C@](C)(O)C[C@@H](C)CN(C(=O)Nc2ccccc2)[C@H](C)[C@@H](O)[C@]1(C)O [Example 5, 9-deoxo-9a-N-(N'-phenyl-carbamoyl)-9a-aza-9a-homoerythromycin A]	3.12 (≈ 3.65 µM)	3.12 (≈ 3.65 µM)	12.5 (≈ 14.6 µM)	6.25 (≈ 7.32 µM)	6.25 (≈ 7.32 µM)	50 (≈ 58.5 µM)	12.5 (≈ 14.6 µM)	25 (≈ 29.3 µM)	6.25 (≈ 7.32 µM)	6.25 (≈ 7.32 µM)	1.56 (≈ 1.83 µM)	3.12 (≈ 3.65 µM)
